US20260193293A1, “PEPTIDES CAPABLE OF INHIBITING PROTEIN-PROTEIN INTERACTIONS AT GABAB1A SUBUNIT AND USES THEREOF” (UNIVERSITY OF COPENHAGEN, priority 2022, published 2026)
Like-named read-outs stand apart in the source and are kept apart here. Non-standard residues stand in square brackets, D forms with d. Residues, ends and D or L forms follow the SMILES beside them. 2Nal = N[C@@H](Cc1ccc2ccccc2c1)C(=O)O

Experiments:
[1] = In vitro plasma stability; settings: for remaining at 48 h, 100 µM / half-life: human; for half-life: plasma
Experimental: For time-course assay, 360 μL human plasma was pre-warmed up at 37° C. for 15 min and then spiked with 40 μL of tested peptides (1 mM in 1×PBS). […] Subsequently, 100 μL acetonitrile was added into and then samples were incubated overnight at −20° C. After that, all samples were centrifuged at 13,400 rpm for 10 min and the supernatant was filtered and then analyzed by LC-MS and UPLC (Waters). The area under the curve (AUC) was determined and normalized to the value of the first time point. The half-life (T1/2) was obtained by fitting the data to the one-phase decay equation in GraphPad Prism 9 and expressed as the mean of three individual experiments. For end-point assay, 108 μL human plasma was pre-warmed up at 37° C. for 15 min and then spiked with 12 μL of tested peptides (1 mM in 1×PBS).

[2] = target: Sushi domains (SD1/2) protein; assay: Fluorescence polarization (FP) competition assay with AJAP-1probe, calculated Ki; assay type: binding
How it was run: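 Competition against 25 nM TAMRA-labelled peptide probe binding SD1/2, in PBS pH 7.4 with 1% BSA at rt, read at 530/580 nm. IC50 from sigmoidal dose-response fits, at least triplicate; Ki calculated from IC50 using probe Kd from saturation binding.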

SD1/2 = assay: Solution array of crude APPWT variants, six-point FP inhibition curve; assay type: binding; settings: crude peptides of the solution array
Experimental: Parallel synthesis in 96 format peptide synthesis was done using Intavis multipep RSi instrument. Fmoc-PAL resins was used (10 mg per well). Fmoc-amino acids (Fmoc-AA) were dissolved in dimethylformamide (DMF) containing 0.3 M OxymaPure. Throughout the synthesis Fmoc-AA were preactivated with diisopropylcarbodiimide (DIC) for 2 min before adding to the resin. Three couplings using 100 μL Fmoc-AA and 10 μL DIC (3 M in DMF) pr well were employed with coupling times of 5, 15 and 60 min. Removal of Fmoc was performed by washing twice with 120 μl per well of 25% piperidine in DMF for 2 and 8 min. Washing steps after deprotection with piperidine and after coupling steps included washing with DMF (150 μL per well) five times. After synthesis the resins were dried with ethanol and trifluoroacetic acid (TFA) was added using 92% TFA containing 4% triisopropylsilane (TIPS), 1% thioanisol, and 3% H2O for 2 hours. This was done by adding 100 μL per well of the TFA cleavage cocktail over a period of 30 min adding up to a total volume of 1 mL to each well. TFA was then reduced in volume to approximately 100-150 μL by N2 flow and peptides were precipitated by the addition 800 μL of diethylether to each well. The peptides were transferred to Waters solvinert plates and washed thoroughly five times with diethylether 500 μL per well. After washing, the peptides were dried and then dissolved in 80% DMSO. Characterization was performed by UPLC-MS on a setup consisting of a Waters Acquity UPLC system connected to an LCT Premier XE mass spectrometer from Micromass using solvent A 0.1% TFA in H2O and solvent B 0.1% TFA in CH3CN.
We synthesized additional positional scanning array (termed solution array) of APPWT using the conventional on-resin SPPS strategy in 96-well plates. This solution array contained 268 peptides (including two wild type peptides). […] Taking advantage of the high purity of this peptide array, we generated six-point FP inhibition curve of each peptide and the obtained dose response curves enabled us to calculate the binding affinity (Ki) of each peptide variant (data not shown).

[3] = Table 14, CPPs tagged peptides, read-out: Ki (nM) mean ± SEM
[4] = purified peptides, read-out: Ki

Compound | Ki [2, 3] [nM] | Ki (SD1/2) [µM] | Ki [2, 4] [nM] | half-life [1] [h] | further results
CC[C@H](C)[C@H](NC(=O)[C@H](Cc1c[nH]c2ccccc12)NC(=O)[C@H](CC(=O)O)NC(=O)[C@H](CC(=O)O)NC(=O)[C@H](CC(=O)O)NC(=O)[C@H](CCC(=O)O)NC(=O)[C@H](CCCNC(=N)N)NC(=O)[C@H](CCCNC(=N)N)NC(=O)[C@H](CCCNC(=N)N)NC(C)=O)C(=O)N[C@@H](CC(=O)O)C(=O)N[C@@H](Cc1c[nH]c2ccccc12)C(=O)NCC(=O)N1CCC[C@H]1C(=O)N[C@H](C(=O)N[C@@H](CO)C(=O)N[C@@H](CC(=O)O)C(=O)N[C@@H](CC(=O)O)C(=O)N[C@@H](CC(=O)O)C(N)=O)[C@@H](C)O [Peptide R3-17] (Ac-RRREDDDWIDWGPTSDDD-NH2) | 9 ± 0.2 | – | – | – | remaining at 48 h, 100 µM ([1]; human plasma): ~80%
CC(=O)N[C@@H](CCC(=O)O)C(=O)N[C@@H](CC(=O)O)C(=O)N[C@@H](CC(=O)O)C(=O)N[C@@H](CO)C(=O)N[C@@H](Cc1c[nH]c2ccccc12)C(=O)N[C@H](C(=O)N[C@@H](Cc1c[nH]c2ccccc12)C(=O)N[C@@H](Cc1c[nH]c2ccccc12)C(=O)NCC(=O)NCC(=O)N[C@@H](C)C(=O)N[C@@H](CC(=O)O)C(=O)N[C@H](C(=O)N[C@@H](CC(=O)O)C(N)=O)[C@@H](C)O)C(C)C (Ac-EDDSWVWWGGADTD-NH2) | – | 0.078 | 100 | – | –
CC(=O)N[C@@H](CCC(=O)O)C(=O)N[C@@H](CC(=O)O)C(=O)N[C@@H](CC(=O)O)C(=O)N[C@@H](CO)C(=O)N[C@@H](CC(=O)O)C(=O)N[C@H](C(=O)N[C@@H](Cc1c[nH]c2ccccc12)C(=O)N[C@@H](Cc1c[nH]c2ccccc12)C(=O)N[C@@H](Cc1ccc(O)cc1)C(=O)NCC(=O)N[C@@H](C)C(=O)N[C@@H](CC(=O)O)C(=O)N[C@H](C(=O)N[C@@H](CC(=O)O)C(N)=O)[C@@H](C)O)C(C)C (Ac-EDDSDVWWYGADTD-NH2) | – | 0.167 | – | – | Ki ([2]; Table 10, deep mutational scanning validation variants of APPWT, read-out: Ki (nM) mean ± SEM): 108 ± 1 nM
CC[C@H](C)[C@H](NC(=O)[C@H](Cc1ccc2ccccc2c1)NC(=O)[C@H](CC(=O)O)NC(=O)[C@H](CC(=O)O)NC(=O)[C@H](CC(=O)O)NC(=O)[C@H](CCC(=O)O)NC(=O)[C@H](CCCNC(=N)N)NC(=O)[C@H](CCCNC(=N)N)NC(=O)[C@H](CCCNC(=N)N)NC(=O)[C@H](CCCNC(=N)N)NC(C)=O)C(=O)N[C@@H](CC(=O)O)C(=O)N[C@@H](Cc1c[nH]c2ccccc12)C(=O)N[C@@H](Cc1ccc(O)cc1)C(=O)N[C@@H](CC(=O)O)C(=O)N[C@@H](CO)C(=O)N[C@@H](CC(=O)O)C(=O)N[C@@H](CC(=O)O)C(=O)N[C@@H](CC(=O)O)C(N)=O [Peptide R4-20] (Ac-RRRREDDD[2Nal]IDWYDSDDD-NH2) | 15 ± 1 | – | – | > 48 | T1/2 ([1]; human plasma, 37° C.): >48 h; fold higher affinity than 4R-16 ([2]; 4R tagged peptides): about 2 fold; Ki ([2]; CPP tagged peptides overview, SD1/2 binding affinity, mean ± SEM, n ≥ 3, read-out: Ki): 12 ± 1 nM
CC[C@H](C)[C@H](NC(=O)[C@H](C)NC(=O)[C@H](Cc1c[nH]c2ccccc12)NC(=O)[C@@H]1CCCN1C(C)=O)C(=O)N[C@H](C(=O)N[C@@H](Cc1c[nH]c2ccccc12)C(=O)NCC(=O)N1CCC[C@H]1C(=O)N[C@H](C(=O)N[C@H](C(=O)N[C@@H](CO)C(=O)N[C@@H](CCCNC(=N)N)C(=O)N[C@@H](CCC(=O)O)C(=O)N[C@@H](CC(=O)O)C(N)=O)C(C)C)[C@@H](C)O)C(C)C [PIANPWT, Ac-PWAIVWGPTVSRED-NH2] (Ac-PWAIVWGPTVSRED-NH2) | – | – | 476 ± 19 | 16 | –
CC(=O)N[C@@H](CCC(=O)O)C(=O)N[C@@H](CC(=O)O)C(=O)N[C@@H](CC(=O)O)C(=O)N[C@@H](CO)C(=O)N[C@@H](CC(=O)O)C(=O)N[C@H](C(=O)N[C@@H](Cc1c[nH]c2ccccc12)C(=O)N[C@@H](Cc1c[nH]c2ccccc12)C(=O)NCC(=O)NCC(=O)N[C@@H](C)C(=O)N[C@@H](CC(=O)O)C(=O)N[C@H](C(=O)N[C@@H](CC(=O)O)C(N)=O)[C@@H](C)O)C(C)C [APPWT] (Ac-EDDSDVWWGGADTD-NH2) | – | 0.635 | 557 ± 9 | > 48 | Ki ([2]; Table 1, affinity maturation, mean ± SEM, n ≥ 3, read-out: Ki): 557 ± 9 nM
CC[C@H](C)[C@H](NC(=O)[C@H](Cc1c[nH]c2ccccc12)NC(=O)[C@H](CC(=O)O)NC(=O)[C@H](CC(=O)O)NC(=O)[C@H](CC(=O)O)NC(=O)[C@H](CCC(=O)O)NC(=O)[C@H](CCCNC(=N)N)NC(=O)[C@H](CCCNC(=N)N)NC(=O)[C@H](CCCNC(=N)N)NC(C)=O)C(=O)N[C@@H](CC(=O)O)C(=O)N[C@@H](Cc1c[nH]c2ccccc12)C(=O)N[C@@H](Cc1ccc(O)cc1)C(=O)N[C@@H](CC(=O)O)C(=O)N[C@@H](CO)C(=O)N[C@@H](CC(=O)O)C(=O)N[C@@H](CC(=O)O)C(=O)N[C@@H](CC(=O)O)C(N)=O [Peptide R3-16] (Ac-RRREDDDWIDWYDSDDD-NH2) | 6.4 ± 0.1 | – | – | – | remaining at 48 h, 100 µM ([1]; human plasma): ~80%
